# Assay results taken from patent US7122554B2, “Carboline derivatives” (Lilly Icos LLC., priority 2001, dated 2006).
# Tests used:
# [1] = target: human recombinant PDE5 (Homo sapiens, UniProt O76074); assay: Inhibitory effect on cGMP-PDE (PDE5 IC50, one-step assay); format: biochemical; settings: human recombinant PDE5, 0.15 μM 8-[H3]-cGMP, 30 minutes incubation
# Protocol: The compounds of structural formula (I) were tested for an ability to inhibit PDE5. The ability of a compound to inhibit PDE5 activity is related to the IC50 value for the compound, i.e., the concentration of inhibitor required for 50% inhibition of enzyme activity. The IC50 value for compounds of structural formula (I) were determined using recombinant human PDE5.
# cGMP-PDE activity of compounds of the present invention was measured using a one-step assay adapted from Wells et al., Biochim. Biophys. Acta, 384, 430 (1975). The reaction medium contained 50 mM Tris-HCl, pH 7.5, 5 mM magnesium acetate, 250 μg/ml 5′-Nucleotidase, 1 mM EGTA, and 0.15 μM 8-[H^3]-cGMP. Unless otherwise indicated, the enzyme used was a human recombinant PDE5 (ICOS Corp., Bothell, Wash.).
# Compounds of the invention were dissolved in DMSO finally present at 2% in the assay.
compound,measurement,setting,value
"S=C(NCc1ccccc1Cl)N1CCc2c([nH]c3ccccc23)[C@H]1c1ccc2c(c1)OCO2 [Example 24, (1R)-benzo[1,3]dioxol-5-yl-1,3,4,9-tetrahydro-β-carboline-2-carbothioic acid 2-chlorobenzylamide]",IC50,[1],177 nM
same,melting point,,123 to 128 °C
"O=C(Nc1ccccc1)C(=O)N1CCc2c([nH]c3ccccc23)[C@H]1c1ccc2c(c1)OCO2 [Example 1, (1R)-2-(1-benzo[1,3]dioxol-5-yl-1,3,4,9-tetrahydro-β-carbolin-2-yl)-2-oxo-N-phenylacetamide]",IC50,[1],167 nM
O=C(NC(=S)N1CCc2c([nH]c3ccccc23)C1c1ccc2c(c1)OCO2)c1ccccc1 (centres unmarked) [Example 38],IC50,[1],379 nM
same,melting point,,207 to 208 °C
"S=C(NCc1ccc(Cl)c(Cl)c1)N1CCc2c([nH]c3ccccc23)[C@H]1c1ccc2c(c1)OCO2 [Example 34, (1R)-benzo[1,3]dioxol-5-yl-1,3,4,9-tetrahydro-β-carboline-2-carbothioic acid 3,4-dichlorobenzylamide]",IC50,[1],512 nM
O=C(Nc1ccccc1)N1CCc2c([nH]c3ccccc23)C1c1ccccc1 (centres unmarked) [Example 5],IC50,[1],400 nM
COc1ccc(C2c3[nH]c4ccccc4c3CCN2C(=O)CCCC(=O)O)cc1Cl (centres unmarked) [Example 21],IC50,[1],180 nM
"Cc1ccc(CNC(=S)N2CCc3c([nH]c4ccccc34)[C@H]2c2ccc3c(c2)OCO3)cc1C [Example 37, (1R)-benzo[1,3]dioxol-5-yl-1,3,4,9-tetrahydro-β-carboline-2-carbothioic acid 3,4-dimethylbenzylamide]",IC50,[1],30 nM
same,melting point,,138 to 142 °C
"O=C(O)c1cccc(CNC(=S)N2CCc3c([nH]c4ccccc34)[C@H]2c2ccc3c(c2)OCO3)c1 [Example 29, (1R)-3-{[(1-benzo[1,3]dioxol-5-yl-1,3,4,9-tetrahydro-β-carboline-2-carbthiolyl)amino]methyl}benzoic acid]",IC50,[1],469 nM
same,melting point,,218 to 220 °C
O=C(Nc1cccc2ccccc12)N1CCc2c([nH]c3ccccc23)C1c1ccccc1 (centres unmarked) [Example 6],IC50,[1],400 nM
"O=C(OCc1ccccc1)N1CCc2c([nH]c3ccccc23)C1c1ccc2c(c1)OCO2 (stereo not drawn) [Example 15a, 1-benzo[1,3]dioxol-5-yl-1,3,4,9-tetrahydro-β-carboline-2-carboxylic acid benzyl ester]",IC50,[1],17 nM
"C[C@H](NC(=O)N1CCc2c([nH]c3ccccc23)[C@H]1c1ccc2c(c1)OCO2)c1ccccc1 [Example 10, (1R)-benzo[1,3]dioxol-5-yl-1,3,4,9-tetrahydro-β-carboline-2-carboxylic acid (1S)-(phenylethyl)amide]",IC50,[1],13 nM
same,melting point,,120 to 121 °C
"O=C(CC(=O)N1CCc2c([nH]c3ccccc23)[C@H]1c1ccc2c(c1)OCO2)c1ccccc1 [Example 17, (1R)-1-(1-benzo[1,3]dioxol-5-yl-1,3,4,9-tetrahydro-β-carbolin-2-yl)-3-phenylpropane-1,3-dione]",IC50,[1],29 nM
"O=C(NC(=O)N1CCc2c([nH]c3ccccc23)[C@H]1c1ccc2c(c1)OCO2)c1ccccc1 [Example 12, N-((1R)-1-benzo[1,3]dioxol-5-yl-1,3,4,9-tetrahydro-β-carboline-2-carbonyl)benzamide]",IC50,[1],49 nM
"O=C(OCc1ccccc1)N1CCc2c([nH]c3ccccc23)[C@H]1c1ccc2c(c1)OCO2 [Example 15b, (1R)-1-benzo[1,3]dioxol-5-yl-1,3,4,9-tetrahydro-β-carboline-2-carboxylic acid benzyl ester]",IC50,[1],9 nM
"O=S(=O)(/C=C/c1ccccc1)N1CCc2c([nH]c3ccccc23)[C@H]1c1ccc2c(c1)OCO2 [Example 41b, (1R)-1-benzo[1,3]dioxol-5-yl-2-(2-phenylethenesulfonyl)-2,3,4,9-tetrahydro-1H-β-carboline]",IC50,[1],413 nM
same,melting point,,193 to 194 °C
C[C@H](NC(=S)N1CCc2c([nH]c3ccccc23)[C@H]1c1ccc2c(c1)OCO2)c1ccccc1 [Example 27],IC50,[1],196 nM
same,melting point,,117 to 121 °C
O=C(NC1CCCCC1)N1CCc2c([nH]c3ccccc23)C1c1ccc2c(c1)OCO2 (centres unmarked) [Example 7],IC50,[1],850 nM
O=C(NCc1ccccc1)N1CCc2c([nH]c3ccccc23)C1c1ccccc1 (centres unmarked) [Example 4],IC50,[1],800 nM
"Fc1ccc(CNC(=S)N2CCc3c([nH]c4ccccc34)[C@H]2c2ccc3c(c2)OCO3)cc1 [Example 35, (1R)-benzo[1,3]dioxol-5-yl-1,3,4,9-tetrahydro-β-carboline-2-carbothioic acid 4-fluorobenzylamide]",IC50,[1],122 nM
same,melting point,,137 to 139 °C
"O=C(O)c1ccc(CNC(=S)N2CCc3c([nH]c4ccccc34)[C@H]2c2ccc3c(c2)OCO3)cc1 [Example 28, (1R)-4-{[(1-benzo[1,3]dioxol-5-yl-1,3,4,9-tetrahydro-β-carboline-2-carbthiolyl)-amino]methyl}benzoic acid]",IC50,[1],36 nM
"S=C(NCc1ccccc1)N1CCc2c([nH]c3ccccc23)C1c1ccc2c(c1)OCO2 (stereo not drawn) [Example 2a, 1-benzo[1,3]dioxol-5-yl-1,3,4,9-tetrahydro-β-caboline-2-carbothioic acid benzylamide]",IC50,[1],51 nM
same,melting point,,197 °C
Fc1ccccc1CNC(=S)N1CCc2c([nH]c3ccccc23)[C@H]1c1ccc2c(c1)OCO2 [Example 26],IC50,[1],40 nM
COC(=O)N1CCc2c([nH]c3ccccc23)C1c1ccccc1 (centres unmarked) [Example 19],IC50,[1],1 nM
"S=C(NCc1cccc(Cl)c1)N1CCc2c([nH]c3ccccc23)[C@H]1c1ccc2c(c1)OCO2 [Example 36, (1R)-benzo[1,3]dioxol-5-yl-1,3,4,9-tetrahydro-β-carboline-2-carbothioic acid 3-chlorobenzylamide]",IC50,[1],494 nM
same,melting point,,189 to 191 °C
O=C(C=C1CCCCC1)N1CCc2c([nH]c3ccccc23)[C@H]1c1ccc2c(c1)OCO2 [Example 16],IC50,[1],209 nM
same,melting point,,116 to 118 °C
"S=C(NCc1ccc2c(c1)OCO2)N1CCc2c([nH]c3ccccc23)[C@H]1c1ccc2c(c1)OCO2 [Example 40, (1R)-1-benzo-[1,3]dioxol-5-yl-1,3,4,9-tetrahydro-β-carboline-2-carbothioic acid (benzo[1,3]dioxol-5-yl-methyl)amide]",IC50,[1],56 nM
same,melting point,,97 to 100 °C
"FC(F)(F)c1ccccc1NC(=S)N1CCc2c([nH]c3ccccc23)[C@H]1c1ccc2c(c1)OCO2 [Example 31, (1R)-benzo[1,3]dioxol-5-yl-1,3,4,9-tetrahydro-β-carboline-2-carbothioic acid (2-trifluoromethylphenyl)amide]",IC50,[1],518 nM
"O=S(=O)(/C=C/c1ccccc1)N1CCc2c([nH]c3ccccc23)C1c1ccc2c(c1)OCO2 (stereo not drawn) [Example 41a, 1-benzo[1,3]dioxol-5-yl-2-(2-phenylethenesulfonyl)-2,3,4,9-tetrahydro-1H-β-carboline]",IC50,[1],675 nM
same,melting point,,191 to 192 °C
"S=C(NCc1ccc(Cl)cc1)N1CCc2c([nH]c3ccccc23)[C@H]1c1ccc2c(c1)OCO2 [Example 32, (1R)-benzo[1,3]dioxol-5-yl-1,3,4,9-tetrahydro-β-carboline-2-carbothioic acid 4-chlorobenzylamide]",IC50,[1],51 nM
COC(=O)CCCC(=O)N1CCc2c([nH]c3ccccc23)C1c1ccccc1 (centres unmarked) [Example 20],IC50,[1],1 nM
"Fc1cccc(CNC(=S)N2CCc3c([nH]c4ccccc34)[C@H]2c2ccc3c(c2)OCO3)c1 [Example 33, (1R)-benzo[1,3]dioxol-5-yl-1,3,4,9-tetrahydro-β-carboline-2-carbothioic acid 3-fluorobenzylamide]",IC50,[1],75 nM
same,melting point,,179 to 181 °C
"S=C(NCc1ccc(Cl)cc1Cl)N1CCc2c([nH]c3ccccc23)[C@H]1c1ccc2c(c1)OCO2 [Example 25, (1R)-benzo[1,3]dioxol-5-yl-1,3,4,9-tetrahydro-β-carboline-2-carbothioic acid 2,4-dichlorobenzylamide]",IC50,[1],126 nM
same,melting point,,124 to 127 °C
"FC(F)(F)c1cc(NC(=S)N2CCc3c([nH]c4ccccc34)[C@H]2c2ccc3c(c2)OCO3)ccc1Cl [Example 30, (1R)-benzo[1,3]dioxol-5-yl-1,3,4,9-tetrahydro-β-carboline-2-carbothioic acid (4-chloro-3-trifuloromethylphenyl)amide]",IC50,[1],83 nM
"S=C(NCc1cccc2ccccc12)N1CCc2c([nH]c3ccccc23)[C@H]1c1ccc2c(c1)OCO2 [Example 39, (1R)-1-benzo[1,3]dioxol-5-yl-1,3,4,9-tetrahydro-β-carboline-2-carbothioic acid (naphthalen-1-yl-methyl)amide]",IC50,[1],119 nM
same,melting point,,111 to 113 °C
"S=C(NCc1ccccc1)N1CCc2c([nH]c3ccccc23)[C@H]1c1ccc2c(c1)OCO2 [Example 2b, (1R)-1-benzo[1,3]dioxol-5-yl-1,3,4,9-tetrahydro-β-carboline-2-carbothioic acid benzylamide]",IC50,[1],40 nM
same,melting point,,205 to 207 °C
O=C(O)CCCC(=O)N1CCc2c([nH]c3ccccc23)C1c1ccc2c(c1)OCO2 (centres unmarked) [Example 22],IC50,[1],150 nM
